Patent US6242601A, “Heterocyclic sulfamides” (Hoffman-La Roche Inc., priority 1999, dated 2001)
Blank lines part the entries; values can stand above or below the compound they belong to.

What was measured:
[1] = target: T1, recombinant human ETA receptors (Homo sapiens, UniProt P25101); assay: Inhibition of endothelin binding on recombinant human ETA receptors expressed in CHO cells ([125I]ET-1, whole attached cells); parameters: expressed in transfected cells; host or cells: CHO cells; settings: 35 pM [125I]ET-1, 2 h, 22° C.
T1 sequence (P25101 21-427): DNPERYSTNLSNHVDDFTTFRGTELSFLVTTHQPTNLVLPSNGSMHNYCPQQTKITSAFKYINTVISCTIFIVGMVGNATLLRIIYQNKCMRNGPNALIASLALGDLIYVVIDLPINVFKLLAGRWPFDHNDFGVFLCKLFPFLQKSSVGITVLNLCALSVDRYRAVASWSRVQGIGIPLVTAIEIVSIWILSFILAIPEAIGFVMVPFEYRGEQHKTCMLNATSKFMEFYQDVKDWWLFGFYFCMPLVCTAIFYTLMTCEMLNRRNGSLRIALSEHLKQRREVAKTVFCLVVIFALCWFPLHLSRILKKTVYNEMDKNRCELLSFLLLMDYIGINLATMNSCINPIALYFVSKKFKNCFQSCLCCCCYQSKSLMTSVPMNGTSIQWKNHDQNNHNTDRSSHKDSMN
Procedure: II. […] Cell culture. CHO cells, expressing recombinant human ETA receptor are grown in Minimal Essential Alpha Medium (Gibco Laboratories, Paisley, Scotland) supplemented with 0.1 μM methotrexate, 5% dialyzed fetal calf serum, 100 U/ml of penicillin and 100 μg/ml of streptomycin. Binding assays with whole attached cells are performed in 500 μl Dulbecco's Eagle medium (DMEM) containing 2 mg/ml bovine serum albumin and 25 mM Hepes. After incubation (2 h, 22° C.) in the presence of 35 pM [^125 I]ET-1 and increasing concentrations of various antagonists, the cells are extensively washed and finally solubilized in 1% (w/v) SDS, 0.5 M NaOH and 100 mM EDTA. Each assay is performed three times in triplicates and non specific binding is assessed in the presence of 100 nM unlabelled ET-1. Specific binding is defined as the difference between total binding and non specific binding. IC50 values are determined after logit/log transformation of the binding data.

[2] = target: T1, recombinant human ETA receptors; assay: Inhibition of endothelin binding to recombinant human ETA receptors expressed in baculovirus-infected insect cells (125I-endothelin); settings: 125I-endothelin 20 pM; baculovirus-infected insect cell membranes; 20° C. for 2 hours or 4° C. for 24 hours
Procedure: I. […] A cDNA coding for human ETA receptors of human placenta was cloned ([…]. Yang, Y. Furuichi and C. Miyamoto, BBRC 180, 1265-1272) and expressed in the Baculovirus-insect cell system. Baculovirus-infected insect cells from a 23 1 fermenter are centrifuged off (3000×g, 15 minutes, 4° C.) 60 hours after the infection, re-suspended in Tris buffer (5 mM, pH 7.4, 1 mM MgCl2) and again centrifuged. After a further re-suspension and centrifugation the cells are suspended in 800 ml of the same buffer and […] at -120° C. The cells disintegrate when the suspension in this hypotonic buffer mixture is thawed. After a repeated […]/thawing cycle the suspension is homogenised and centrifuged (25000×g, 15 minutes, 4° C.). After suspension in Tris buffer (75 mM, pH 7.4, 25 mM MgCl2, 250 mM sucrose) 1 ml aliquots (protein content about 3.5 mg/ml) are stored at -85° C. […] The incubation is carried out at 20° C. for 2 hours or at 4° C. for 24 hours. The separation of free and membrane-bound radio-ligands is carried out by filtration over a glass fibre filter.

isolated rat aorta rings = target: T2, isolated rat aorta rings (Rattus norvegicus, UniProt P26684); assay: Inhibition of endothelin-induced contractions in isolated rat aorta rings; parameters: species or system adult Wistar-Kyoto rats; settings: rat aorta rings without endothelium, 37° C.; endothelin-1 cumulative; from dose ratio; read-out: pA2 (converted)
T2 construct: Rings with a length of 5 mm were cut out from the thorax aorta of adult Wistar-Kyoto rats; from tissue; host or cells: thoracic aorta of adult Wistar-Kyoto rats, endothelium removed
T2 sequence (P26684 21-426): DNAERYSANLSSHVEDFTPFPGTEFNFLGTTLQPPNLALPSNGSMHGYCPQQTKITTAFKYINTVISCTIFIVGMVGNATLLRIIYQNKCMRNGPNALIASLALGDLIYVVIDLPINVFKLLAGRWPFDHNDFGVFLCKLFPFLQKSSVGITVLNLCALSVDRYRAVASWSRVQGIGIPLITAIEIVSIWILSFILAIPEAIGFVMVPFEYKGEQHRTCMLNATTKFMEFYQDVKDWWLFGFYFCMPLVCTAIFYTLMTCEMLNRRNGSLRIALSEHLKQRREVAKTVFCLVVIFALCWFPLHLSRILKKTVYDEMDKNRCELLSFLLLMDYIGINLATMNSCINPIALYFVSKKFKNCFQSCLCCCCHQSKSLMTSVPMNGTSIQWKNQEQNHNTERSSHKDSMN
Procedure: Rings with a length of 5 mm were cut out from the thorax aorta of adult Wistar-Kyoto rats. The endothelium was removed by lightly rubbing the internal surface. Each ring was immersed at 37° C. in 10 ml of Krebs-Henseleit solution in an isolated bath while gassing with 95% O2 and 5% CO2. The isometric stretching of the rings was measured. The rings were stretched to a pre-tension of 3 g.
The corresponding pA2 value, which is a measure of the activity of the test compound, was calculated using a computer programme according to the following equation from the "dose ratio" DR for each individual dosage-activity curve.
pA2 =log(DR-1)-log(antagonist-concentration)

[3] = Pharmacokinetics of the endothelin receptor antagonists after oral gavage in rats; assay type: in vivo; settings: rat, plasma, 5 mg/kg in DMSO, Wistar rats, bioassay; for AUC: read-out: Area under the plasma concentration time curve; for Cmax: read-out: Peak concentration in rat plasma
Procedure: IV. […] The test compounds were dissolved in DMSO at a concentration of 5 mg/mL and administered orally by gavage at a dose of 1 mL/kg body weight corresponding to 5 mg/kg body weight. Two rats were administered per test compound. Blood samples were collected from the retro-orbital sinus at 1 and 5 h post dose in one rat, and at 3 and 7 h post dose in the other rat. In addition a terminal 24 h blood sample was collected from both rats by heart puncture. Blood was collected on EDTA-NaF. Plasma was derived by centrifugation at 2000 g at +4° C. for 15 min. Plasma samples were assayed for active drug related material with a bioassay, based on the binding competition of tested compounds and ^125 I ET-1 on recombinant ETA receptors. Quantitation of plasma samples was by comparison to a calibration curve build up from control rat plasma spiked with known concentrations of the test compounds.

- Kb (isolated rat aorta rings): ≤ 6.31 nM
- AUC [3]: ≥ 10000 ng·h/mL
- Cmax [3]: ≥ 1500 ng/mL
Structure (SMILES): COc1ccccc1Oc1c(NS(=O)(=O)c2ccc(C(C)C)cn2)nc(-c2ccnc(C(N)=O)c2)nc1OC [Example 42, 4-[4-(5-isopropyl-pyridine-2-sulfonylamino)-6-methoxy-5-(2-methoxy-phenoxy)-pyrimidin-2-yl]-pyridine-2-carboxylic acid amide]

- Kb (isolated rat aorta rings): ≤ 6.31 nM
Structure (SMILES): COc1ccccc1Oc1c(NS(=O)(=O)c2ccc(C(C)C)cn2)nc(-c2ccnc(CO)c2)nc1OC [Example 44, 5-isopropyl-pyridine-2-sulfonic acid [2-(2-hydroxymethyl-pyridin-4-yl)-6-methoxy-5-(2-methoxy-phenoxy)-pyrimidin-4-yl]-amide]

- IC50 [2]: ≤ 50 nM
Structure (SMILES): COc1ccccc1Oc1c(NS(=O)(=O)c2ccc(C)cn2)nc(-c2ccnc(C(=N)NO)c2)nc1OC [Example 34, N-hydroxy-4-[4-methoxy-5-(2-methoxy-phenoxy)-6-(5-methyl-pyridine-2-sulfonylamino)-pyrimidin-2-yl]-pyridine-2-carboxamidine]

- IC50 [1]: ≤ 10 nM
Structure (SMILES): COc1ccccc1Oc1c(NS(=O)(=O)c2ccc(C)cn2)nc(-c2ccnc(OCCO)c2)nc1OC [Example 36, 5-methyl-pyridine-2-sulfonic acid [2-[2-(2-hydroxy-ethoxy)-pyridin-4-yl]-6-methoxy-5-(2-methoxy-phenoxy)-pyrimidin-4-yl]-amide]

- IC50 [2]: ≤ 50 nM
Structure (SMILES): CCOc1cc(-c2nc(NS(=O)(=O)c3ccc(C)cn3)c(Oc3ccccc3OC)c(OC)n2)ccn1 [Example 38, 5-methyl-pyridine-2-sulfonic acid [2-(2-ethoxy-pyridin-4-yl)-6-methoxy-5-(2-methoxy-phenoxy)-pyrimidin-4-yl]-amide]

- IC50 [2]: ≤ 50 nM
Structure (SMILES): CNC(=O)c1cc(-c2nc(NS(=O)(=O)c3ccc(C(C)C)cn3)c(Oc3ccccc3OC)c(OC)n2)ccn1 [Example 48, 4-[4-(5-isopropyl-pyridine-2-sulfonylamino)-6-methoxy-5-(2-methoxy-phenoxy)-pyrimidin-2-yl]-pyridine-2-carboxylic acid methylamide]

- IC50 [2]: ≤ 50 nM
Structure (SMILES): COc1ccccc1Oc1c(NS(=O)(=O)c2ccc(C(C)C)cn2)nc(-c2ccnc(C(=O)N(C)C)c2)nc1OC [Example 51, 4-[4-(5-isopropyl-pyridine-2-sulfonylamino)-6-methoxy-5-(2-methoxy-phenoxy)-pyrimidin-2-yl]-pyridine-2-carboxylic acid dimethylamide]

- IC50 [2]: ≤ 50 nM
Structure (SMILES): COc1ccccc1Oc1c(NS(=O)(=O)c2ccc(C(C)C)cn2)nc(-c2ccnc(-c3noc(C)n3)c2)nc1OC [Example 56, 5-isopropyl-pyridine-2-sulfonic acid {6-methoxy-5-(2-methoxy-phenoxy)-2-[2-(5-methyl-[1,2,4]oxadiazol-3-yl)-pyridin-4-yl]-pyrimidin-4-yl}-amide]

- Kb (isolated rat aorta rings): ≤ 6.31 nM
Structure (SMILES): COc1ccccc1Oc1c(NS(=O)(=O)c2ccc(C(C)C)cn2)nc(-c2ccnc(OCCO)c2)nc1OC [Example 57, 5-isopropyl-pyridine-2-sulfonic acid [2-[2-(2-hydroxy-ethoxy)-pyridin-4-yl]-6-methoxy-5-(2-methoxy-phenoxy)-pyrimidin-4-yl]-amide]

More lines, now with the values behind:

Structure (SMILES): COc1ccccc1Oc1c(NS(=O)(=O)c2ccc(C)cn2)nc(-c2ccnc(CO)c2)nc1OC [Example 29, 5-methyl-pyridine-2-sulfonic acid [2-(2-hydroxymethyl-pyridin-4-yl)-6-methoxy-5-(2-methoxy-phenoxy)-pyrimidin-4-yl]-amide]
- IC50 [1]: ≤ 10 nM
- IC50 [2]: ≤ 50 nM

Structure (SMILES): C=C(C)c1ccc(S(=O)(=O)Nc2nc(-c3cccc(O)c3)nc(OC)c2Oc2ccccc2OC)nc1 [Example 15, 5-isopropenyl-pyridine-2-sulfonic acid [2-(3-hydroxy-phenyl)-6-methoxy-5-(2-methoxy-phenoxy)-pyrimidin-4-yl]-amide]
- IC50 [2]: ≤ 50 nM

Structure (SMILES): COC(=O)COc1cccc(-c2nc(NS(=O)(=O)c3ccc(C)cn3)c(Oc3ccccc3OC)c(OC)n2)c1 [Example 2, {3-[4-methoxy-5-(2-methoxy-phenoxy)-6-(5-methyl-pyridine-2-sulfonylamino)-pyrimidin-2-yl]-phenoxy}-acetic acid methyl ester]
- IC50 [1]: ≤ 10 nM

Structure (SMILES): COc1ccccc1Oc1c(NS(=O)(=O)c2ccc(C)cn2)nc(-c2ccnc(C(=O)OCCO)c2)nc1OC [Example 25, 4-[4-methoxy-5-(2-methoxy-phenoxy)-6-(5-methyl-pyridine-2-sulfonylamino)-pyrimidin-2-yl]-pyridine-2-carboxylic acid 2-hydroxy-ethyl ester]
- IC50 [2]: ≤ 50 nM

Structure (SMILES): COC(=O)c1cc(-c2nc(NS(=O)(=O)c3ccc(C)cn3)c(Oc3ccccc3OC)c(OC)n2)ccn1 [Example 22, 4-[4-methoxy-5-(2-methoxy-phenoxy)-6-(5-methyl-pyridine-2-sulfonylamino)-pyrimidin-2-yl]-pyridine-2-carboxylic acid methyl ester]
- IC50 [2]: ≤ 50 nM
- AUC [3]: ≥ 10000 ng·h/mL
- Cmax [3]: ≥ 1500 ng/mL

Structure (SMILES): COc1ccccc1Oc1c(NS(=O)(=O)c2ccc(C)cn2)nc(-c2ccnc(C#N)c2)nc1OC [Example 19, 5-methyl-pyridine-2-sulfonic acid [2-(2-cyano-pyridin-4-yl)-6-methoxy-5-(2-methoxy-phenoxy)-pyrimidin-4-yl]-amide]
- IC50 [1]: ≤ 10 nM
- AUC [3]: ≥ 10000 ng·h/mL
- Cmax [3]: ≥ 1500 ng/mL

Structure (SMILES): COc1ccccc1Oc1c(NS(=O)(=O)c2ccc(C)cn2)nc(-c2ccnc(CNC(C)=O)c2)nc1OC [Example 30, N-{4-[4-methoxy-5-(2-methoxy-phenoxy)-6-(5-methyl-pyridine-2-sulfonylamino)-pyrimidin-2-yl]-pyridin-2-ylmethyl}-acetamide]
- IC50 [1]: ≤ 10 nM

Structure (SMILES): CCS(=O)(=O)NCc1cc(-c2nc(NS(=O)(=O)c3ccc(C)cn3)c(Oc3ccccc3OC)c(OC)n2)ccn1 [Example 32, 5-methyl-pyridine-2-sulfonic acid [2-[2-(ethanesulfonylamino-methyl)-pyridin-4-yl]-6-methoxy-5-(2-methoxy-phenoxy)-pyrimidin-4-yl]-amide]
- IC50 [2]: ≤ 50 nM
